“And” between values parts separate entries of the source, which are not always exact repeats. Identical values can stand only once. Toxic doses and inconclusive results are not listed. The calls were made as follows: active = survival T/C of 150% or more; inactive = T/C below 125% in these data.
Tested on: CD2F1 mice, L1210 leukemia ip, survival T/C
Assay: NCI In Vivo Anticancer Drug Screen. Data for tumor model L1210 Leukemia (intraperitoneal) in CD2F1 (CDF1) mice
Conditions: higher = longer survival
Procedure, shortened: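 Mice carrying a transplanted tumor received test compound or vehicle alone. The value is the measurement in the treated group divided by that in the vehicle-treated control group.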

[1] = endpoint: mean survival time, dose: 10.0 mg/kg/injection, schedule: Q01DX009 (ip), vehicle: saline
[2] = endpoint: mean survival time, dose: 100.0 mg/kg/injection, schedule: Q04DX003 (ip), vehicle: saline with Tween-80
[3] = endpoint: mean survival time, dose: 200.0 mg/kg/injection, schedule: Q04DX003 (ip), vehicle: saline with Tween-80
[4] = endpoint: mean survival time, dose: 400.0 mg/kg/injection, schedule: Q04DX003 (ip), vehicle: saline with Tween-80
[5] = endpoint: mean survival time, dose: 100.0 mg/kg/injection, schedule: Q04DX002 (ip), vehicle: saline with Tween-80
[6] = endpoint: mean survival time, dose: 200.0 mg/kg/injection, schedule: Q04DX002 (ip), vehicle: saline with Tween-80
[7] = endpoint: mean survival time, dose: 400.0 mg/kg/injection, schedule: Q04DX002 (ip), vehicle: saline with Tween-80
[8] = endpoint: mean survival time, dose: 100.0 mg/kg/injection, schedule: Q01DX009 (ip), vehicle: saline with Tween-80
[9] = endpoint: mean survival time, dose: 200.0 mg/kg/injection, schedule: Q01DX009 (ip), vehicle: saline with Tween-80
[10] = endpoint: mean survival time, dose: 400.0 mg/kg/injection, schedule: Q01DX009 (ip), vehicle: saline with Tween-80
[11] = endpoint: mean survival time, dose: 50.0 mg/kg/injection, schedule: Q01DX009 (ip), vehicle: saline with Tween-80
[12] = endpoint: mean survival time, dose: 50.0 mg/kg/injection, schedule: Q01DX001 (ip), vehicle: saline
[13] = endpoint: mean survival time, dose: 100.0 mg/kg/injection, schedule: Q01DX001 (ip), vehicle: saline
[14] = endpoint: mean survival time, dose: 200.0 mg/kg/injection, schedule: Q01DX001 (ip), vehicle: saline
[15] = endpoint: mean survival time, dose: 400.0 mg/kg/injection, schedule: Q01DX001 (ip), vehicle: saline
[16] = endpoint: mean survival time, dose: 25.0 mg/kg/injection, schedule: Q01DX009 (ip), vehicle: saline with Tween-80

Measured: T/C

Cc1cc(N(CCCl)CCCl)c(C)cc1NC(=O)c1ccccc1
inactive: endpoint: mean survival time, dose: 4.0 mg/kg/injection, schedule: Q01DX009 (ip), vehicle: saline 106 % of control | endpoint: mean survival time, dose: 6.0 mg/kg/injection, schedule: Q01DX009 (ip), vehicle: saline 115 % of control | [1] 113 % of control | endpoint: mean survival time, dose: 18.0 mg/kg/injection, schedule: Q01DX009 (ip), vehicle: saline 121 % of control | endpoint: mean survival time, dose: 30.0 mg/kg/injection, schedule: Q01DX009 (ip), vehicle: saline 124 % of control

CCC(C(N)=O)C1=CCCCC1 (stereo not given)
inactive: [2] 103 % of control | [3] 104 % of control | [4] 101 % of control

CCCC(CC)C(=O)CC1CCCCC1 (stereo not given)
inactive: [2] 105 % of control | [3] 94 % of control | [4] 98 % of control

NC(=S)N/N=C/c1ccc(I)cn1
inactive: [5] 93 % of control | [6] 93 % of control | [7] 93 % of control

CC1(C)N=C(N)N=C(N)N1c1cccc(CCCc2ccccc2)c1
inactive: endpoint: mean survival time, dose: 6.25 mg/kg/injection, schedule: Q01DX001 (ip), vehicle: saline 96 % of control

N#CC(c1ccccc1)C1CCCCC1 (stereo not given)
inactive: endpoint: mean survival time, dose: 75.0 mg/kg/injection, schedule: Q01DX009 (ip), vehicle: saline 95 % of control | endpoint: mean survival time, dose: 150.0 mg/kg/injection, schedule: Q01DX009 (ip), vehicle: saline 106 % of control | endpoint: mean survival time, dose: 300.0 mg/kg/injection, schedule: Q01DX009 (ip), vehicle: saline 108 % of control

CCCCCCCCCCCC1=NC(CO)(CO)CO1
inactive: [8] 96 % of control | [9] 90 % of control | [10] 93 % of control

O=C([O-])[O-].O=[N+]([O-])O.[Co+3].[NH2-].[NH2-].[NH2-].[NH2-]
inactive: [10] 93 % of control | [4] 94 % of control

O=[N+]([O-])c1ccc(/C=N\N=C\c2ccco2)cc1
inactive: [2] 88 % of control | [9] 86 % of control | [3] 111 % of control | [4] 102 % of control

COc1ccc(CCN2C(=O)C=CC2=O)cc1OC
inactive: endpoint: mean survival time, dose: 5.0 mg/kg/injection, schedule: Q01DX001 (ip), vehicle: saline 94 % of control | endpoint: mean survival time, dose: 5.0 mg/kg/injection, schedule: Q01DX009 (ip), vehicle: saline 94 % of control | endpoint: mean survival time, dose: 10.0 mg/kg/injection, schedule: Q01DX001 (ip), vehicle: saline 94 % of control | [1] 97 % of control | endpoint: mean survival time, dose: 20.0 mg/kg/injection, schedule: Q01DX001 (ip), vehicle: saline 91 % of control

O=[n+]1cc2ccccn2cc1-c1ccccc1
inactive: [8] 97 % of control | [2] 104 % of control | [9] 101 % of control | [3] 104 % of control | [10] 101 % of control

COc1cc(OC)c(NC(=O)Oc2ccc(C=O)cc2OC)cc1Cl
inactive: [11] 86 % of control | [8] 96 % of control

O=C(O)C[N-]CC[N-]CC(=O)O.[Cl][Pt+2][Cl]
inactive: endpoint: mean survival time, dose: 6.25 mg/kg/injection, schedule: Q04DX003 (ip), vehicle: other 101 % of control | endpoint: mean survival time, dose: 12.5 mg/kg/injection, schedule: Q04DX003 (ip), vehicle: other 100 % of control | endpoint: mean survival time, dose: 25.0 mg/kg/injection, schedule: Q04DX003 (ip), vehicle: other 104 % of control | endpoint: mean survival time, dose: 50.0 mg/kg/injection, schedule: Q04DX003 (ip), vehicle: other 109 % of control

CC(=O)OC(C)C(OC(C)=O)C(OC(C)=O)C(C=O)OC(C)=O (stereo not given)
inactive: endpoint: mean survival time, dose: 100.0 mg/kg/injection, schedule: Q01DX001 (ip), vehicle: Klucel (hydroxypropylcellulose) (HPC) 101 % of control | endpoint: mean survival time, dose: 200.0 mg/kg/injection, schedule: Q01DX001 (ip), vehicle: Klucel (hydroxypropylcellulose) (HPC) 101 % of control | endpoint: mean survival time, dose: 400.0 mg/kg/injection, schedule: Q01DX001 (ip), vehicle: Klucel (hydroxypropylcellulose) (HPC) 101 % of control

Cc1ccc(C(=O)N/N=C/C(=O)O)cc1
inactive: endpoint: mean survival time, dose: 25.0 mg/kg/injection, schedule: Q01DX009 (ip), vehicle: water 102 % of control | endpoint: mean survival time, dose: 50.0 mg/kg/injection, schedule: Q01DX009 (ip), vehicle: water 95 % of control | endpoint: mean survival time, dose: 100.0 mg/kg/injection, schedule: Q01DX009 (ip), vehicle: water 102 % of control | endpoint: mean survival time, dose: 200.0 mg/kg/injection, schedule: Q01DX009 (ip), vehicle: water 95 % of control

Nc1ncnc2c1ccn2C1OC(CO)CC1O (stereo not given)
inactive: endpoint: mean survival time, dose: 75.0 mg/kg/injection, schedule: Q01DX001 (ip), vehicle: saline 103 % of control | endpoint: mean survival time, dose: 150.0 mg/kg/injection, schedule: Q01DX001 (ip), vehicle: saline 100 % of control | endpoint: mean survival time, dose: 300.0 mg/kg/injection, schedule: Q01DX001 (ip), vehicle: saline 109 % of control

CN(C)C=Nc1c(Cl)cccc1Cl
inactive: [12] 100 % of control | [13] 103 % of control | [14] 97 % of control | [15] 106 % of control

CC(N)C(=O)NC1C(CO)OC(n2cnc3c(N)ncnc32)C1O (stereo not given)
inactive: [13] 100 % of control | [14] 97 % of control | [15] 100 % of control

CN(C)CCCN=Cc1ccc(O)cc1O.CN(C)CCCN=Cc1ccc(O)cc1O.[Ni+2]
inactive: endpoint: mean survival time, dose: 12.5 mg/kg/injection, schedule: Q01DX009 (ip), vehicle: saline with Tween-80 94 % of control | [16] 93 % of control | [11] 94 % of control

O=C(CSCC(=O)c1ccc(Br)cc1)c1ccc(Br)cc1
inactive: [13] 112 % of control | [14] 98 % of control | [15] 101 % of control

COC(=O)C(CCC1CCCCC1)CC1CCCCC1 (stereo not given)
inactive: endpoint: mean survival time, dose: 100.0 mg/kg/injection, schedule: Q04DX003 (ip), vehicle: acetone 108 % of control | endpoint: mean survival time, dose: 200.0 mg/kg/injection, schedule: Q04DX003 (ip), vehicle: acetone 102 % of control | endpoint: mean survival time, dose: 400.0 mg/kg/injection, schedule: Q04DX003 (ip), vehicle: acetone 108 % of control

N#C[S-].N#C[S-].[Au+3].[Au+3].[CH3-].[CH3-].[CH3-].[CH3-]
inactive: [2] 96 % of control | [3] 98 % of control

NC(=S)NNC(N)=S
inactive: [8] 101 % of control | [2] 104 % of control | [9] 95 % of control | [3] 102 % of control | [10] 110 % of control | [4] 107 % of control

O=C(O)C(CO)C(CO)C(=O)O (stereo not given)
inactive: [12] 107 % of control | [13] 121 % of control | [14] 101 % of control | [15] 106 % of control

COc1ccc(C(O)C#N)cc1O (stereo not given)
inactive: endpoint: mean survival time, dose: 3.13 mg/kg/injection, schedule: Q01DX009 (ip), vehicle: saline 101 % of control | endpoint: mean survival time, dose: 6.25 mg/kg/injection, schedule: Q01DX009 (ip), vehicle: saline 103 % of control | endpoint: mean survival time, dose: 6.25 mg/kg/injection, schedule: Q04DX003 (ip), vehicle: saline 101 % of control | endpoint: mean survival time, dose: 12.5 mg/kg/injection, schedule: Q01DX009 (ip), vehicle: saline 101 % of control | endpoint: mean survival time, dose: 12.5 mg/kg/injection, schedule: Q04DX003 (ip), vehicle: saline 106 % of control

CCOC(=O)NS(=O)(=O)Nc1ccccc1
inactive: [8] 104 % of control | [9] 102 % of control | [10] 96 % of control

COC1OC(CN=[N+]=[N-])C(N=[N+]=[N-])C(OS(C)(=O)=O)C1OS(C)(=O)=O (stereo not given)
inactive: [8] 95 % of control | [9] 95 % of control | [10] 90 % of control

COc1ccc(OC)c(C2=CCCCCC2)c1OC
inactive: [2] 101 % of control | [3] 101 % of control | [4] 98 % of control

CCC1(C)C(=O)c2ccccc2N(C)C1=O (stereo not given)
inactive: endpoint: mean survival time, dose: 100.0 mg/kg/injection, schedule: Q01DX001 (ip), vehicle: saline with Tween-80 95 % of control | [8] 93 % of control | [5] 103 % of control and 106 % of control | [2] 97 % of control | endpoint: mean survival time, dose: 200.0 mg/kg/injection, schedule: Q01DX001 (ip), vehicle: saline with Tween-80 100 % of control | [9] 93 % of control and 102 % of control | [6] 104 % of control and 110 % of control | [3] 100 % of control | endpoint: mean survival time, dose: 400.0 mg/kg/injection, schedule: Q01DX001 (ip), vehicle: saline with Tween-80 95 % of control | [10] 101 % of control and 102 % of control | [7] 109 % of control and 110 % of control | [4] 100 % of control

CN(C)C1CCC(Nc2nc(Nc3cc(Cl)cc(Cl)c3)nc3ccccc23)CC1 (stereo not given)
inactive: [16] 102 % of control | endpoint: mean survival time, dose: 25.0 mg/kg/injection, schedule: Q04DX003 (ip), vehicle: saline with Tween-80 101 % of control | [11] 96 % of control | endpoint: mean survival time, dose: 50.0 mg/kg/injection, schedule: Q04DX003 (ip), vehicle: saline with Tween-80 103 % of control | [2] 98 % of control

COc1cccc2c1C(=O)c1c(O)c3c(c(O)c1C2=O)C[C@@](O)(C(=O)CO)C[C@@H]3OC1CC(N)CC(C)O1 (stereo not given in full)
active: endpoint: median survival time, dose: 0.75 mg/kg/injection, schedule: Q01DX009 (ip), vehicle: water 154 % of control | endpoint: median survival time, dose: 1.5 mg/kg/injection, schedule: Q01DX009 (ip), vehicle: water 200 % of control
inactive: endpoint: median survival time, dose: 3.0 mg/kg/injection, schedule: Q01DX009 (ip), vehicle: water 108 % of control

— PubChem BioAssay AID256 (DTP/NCI, 2004)
